Data on four compounds can be found in patent EP2087894B1, “FORMULATIONS COMPRISING PICEID ABLE TO PREVENT AND INHIBIT LIPID PEROXIDATION” (Glures S.R.L., priority 2008, dated 2009).

Molecules are shown by their SMILES.

A short description of data set [1]: Partition coefficients of the stilbenes between liposomes and water. The format is physicochemical. To be noted: for partitioning between water and lipid phase: liposomes / water. Here is the method: (§1) As the antioxidant efficacy of both products is related to their partitioning between the water and lipid phase and to their position in the membrane bilayer, an investigation was carried out on the interactions of resveratrol and piceid in multilamellar liposomes of saturated L-alpha-phosphatidylcholine (PC) of various chain lengths (dimyristoyl, DMPC; dipalmitoyl, DPPC; distearoyl, DSPC) to determine: a) partition coefficients of the stilbenes between liposomes and water; b) modification of lipid bilayer organization; c) their position in the membrane using differential calorimetric analysis (DSC) and spin labelling (EPR).

The nature of data set [2]: Spin labelling (EPR) with n-SASL to find the position in the membrane. Type of data set: physicochemical. As to conditions: for location of the molecule in the bilayer: EPR spectra of n-SASL (positions 5, 7, 10, 12, 16) in DPPC liposomes; for position of the reactive hydroxyl group in the bilayer: EPR, DPPC liposomes. On the procedure: as §1
Data set [3] in a line: Differential calorimetric analysis (DSC) of the gel-to-fluid transition of liposomes. Type of data set: physicochemical. As to conditions: DMPC, DPPC, DSPC multilamellar liposomes at increasing stilbene concentrations. On the procedure:
as §1

Data set [4] can be described thus: Inhibition of linoleic acid peroxidation, followed by oxygen consumption after thermal initiation by ABIP. To be noted: 37 °C; for decrease in oxygen consumption (inhibition of lipid peroxidation): radical reaction thermally initiated by ABIP, after addition of antioxidant. The format is biochemical. Here is the method: The effect of the antioxidants on lipid peroxidation was verified by measuring the quantity of oxygen consumed at 37 °C as a consequence of the radical reaction thermally initiated by ABIP.

Data set [5] in a line: Free radical neutralization followed spectrophotometrically (disappearance of the band at 515 nm). Type of data set: biochemical. As to conditions: radical neutralizing activity, spectrophotometric. The text has this: (§2) With DHHP, the radical neutralizing activity was instead followed spectrophotometrically by measuring the initial rate (Vo) of the disappearance of its characteristic band at 515 nm. […] It was also required to verify whether the two products examined are able to react with the free radical initiators before the latter activate lipid peroxidation in the membrane.

A short description of data set [6]: Reaction with free radicals and radical initiators before they activate lipid peroxidation. The format is biochemical.
Text: as §2

As to `Oc1ccc(C=Cc2cc(O)cc(O)c2)cc1` [resveratrol], the “partitioning between water and lipid phase” value in data set [1] is listed as “sufficiently lipophilic to partition themselves almost exclusively in the lipid phase”. In data set [2], the “location of the molecule in the bilayer” value was “located in the hydrophobic region of the bilayer” and the “position of the reactive hydroxyl group in the bilayer” value (shortened to “position”) was “very close to the two double bonds of the polyunsaturated fatty acids (PUFA)”. The “DSC profiles of the gel-to-fluid state transition” value in data set [3] was “broadened and shifted towards lower temperatures”.
Regarding `Cc1cc(C(C)(C)C)c(O)c(C(C)(C)C)c1` [BHT, 2,6-di-tert-butyl-4-methyl-phenol, reference compound], the “position” value in data set [2] is on record as “located more deeply”. Besides, the “decrease in oxygen consumption (inhibition of lipid peroxidation)” value (shortened to “decrease … (inhibition of lipid peroxidation)”) in data set [4] was “brief initial period of strong inhibition”.
For `Cc1c(C)c2c(c(C)c1O)CC[C@@](C)(CCC[C@H](C)CCC[C@H](C)CCCC(C)C)O2` [vitamin E, alpha-tocopherol, reference compound], the “position” value in data set [2] is reported as “more displaced towards the polar surface”. The “decrease … (inhibition of lipid peroxidation)” value in data set [4] is reported as “brief initial period of strong inhibition”.
Turning to `OC[C@H]1O[C@@H](Oc2cc(O)cc(/C=C/c3ccc(O)cc3)c2)[C@H](O)[C@@H](O)[C@@H]1O` [piceid], the “hydrophobicity from partition coefficient measurements” value in data set [1] (between liposomes and water) is recorded as “less hydrophobic than resveratrol”. The “partitioning between water and lipid phase” value in data set [1] is given as “sufficiently lipophilic to partition themselves almost exclusively in the lipid phase”. In data set [2], the “location of the molecule in the bilayer” value is reported as “located in the hydrophobic region of the bilayer although piceid is closer to the hydrophilic region” and the “position” value is reported as “very close to the two double bonds of the polyunsaturated fatty acids (PUFA)”. For the same compound, the “DSC profiles of the gel-to-fluid state transition” value in data set [3] is “broadened and shifted towards lower temperatures”. In addition, the “initial rate (Vo) of the disappearance of its characteristic band at 515 nm” value in data set [5] is “comparable to those of BHT (although lower than those of vitamin E)”. In data set [6] (in water, before initiators activate lipid peroxidation in the membrane), the “reactivity with the free radicals and radical initiators under examination” value is “react with all the free radicals and radical initiators under examination”. The “effectiveness (quantitative evaluations)” value in data set [6] (piceid compared with resveratrol) is given as “more effective than resveratrol”. Further, the “duration of the inhibitory effect on oxygen consumption” value in data set [4] (ABIP-initiated, compared with vitamin E and BHT) is recorded as “more prolonged effect over time”. In addition, in data set [4], the “decrease … (inhibition of lipid peroxidation)” value is “steady decrease in oxygen consumption greater than that of vitamin E and BHT”.
